In PubChem BioAssay (NCI):
Values joined by “and” are separate entries in the source; they are usually repeats but may differ in a detail not shown here. Identical values can stand only once.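 A five-concentration, 48-hour dose response in 96-well plates underlies each endpoint, interpolated linearly between surrounding concentrations. Abbreviation: GI50, concentration required for 50% inhibition of growth. TGI: total growth inhibition.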

Columns and labels:
Assay in all cases: NCI-60 cell line screen, 48 h
CAKI-1 renal = tested on: CAKI-1 renal
HCC-2998 colon = tested on: HCC-2998 colon
HCT-116 colon = tested on: HCT-116 colon
HCT-15 colon = tested on: HCT-15 colon
HOP-62 NSCLC = tested on: HOP-62 NSCLC
HS 578T breast = tested on: HS 578T breast
MCF7 breast = tested on: MCF7 breast
NCI-H226 lung = tested on: NCI-H226 lung
OVCAR-3 ovarian = tested on: OVCAR-3 ovarian
OVCAR-4 ovarian = tested on: OVCAR-4 ovarian
OVCAR-8 ovarian = tested on: OVCAR-8 ovarian
PC-3 prostate = tested on: PC-3 prostate
RXF 393 renal = tested on: RXF 393 renal
SF-295 CNS = tested on: SF-295 CNS
SN12C renal = tested on: SN12C renal
SNB-19 CNS = tested on: SNB-19 CNS
UO-31 renal = tested on: UO-31 renal

| SMILES | TGI (CAKI-1 renal) | TGI (HCC-2998 colon) | TGI (HCT-116 colon) | TGI (HCT-15 colon) | TGI (HOP-62 NSCLC) | TGI (HS 578T breast) | TGI (MCF7 breast) | TGI (NCI-H226 lung) | TGI (OVCAR-3 ovarian) | TGI (OVCAR-4 ovarian) | TGI (OVCAR-8 ovarian) | TGI (PC-3 prostate) | TGI (RXF 393 renal) | TGI (SF-295 CNS) | TGI (SN12C renal) | TGI (SNB-19 CNS) | TGI (UO-31 renal) | GI50 (HOP-62 NSCLC) | GI50 (MCF7 breast) |
| --- | --- | --- | --- | --- | --- | --- | --- | --- | --- | --- | --- | --- | --- | --- | --- | --- | --- | --- | --- |
| CCOC(=O)c1nc2ccccc2nc1Nc1ccc(OC)cc1 | 56.6 µM | > 100 µM | > 100 µM | > 100 µM | 30.7 µM | > 100 µM | > 100 µM | > 100 µM | 70.4 µM | 55.7 µM | > 100 µM | > 100 µM | 39.7 µM | 54.4 µM | 61.5 µM | 83.9 µM | > 100 µM |  |  |
| CCCCC(/C=C\COC1CCCCO1)=C/C(=O)OCC (stereo unspecified) | > 100 µM | > 100 µM | > 100 µM | > 100 µM | > 100 µM | > 100 µM | > 100 µM | > 100 µM | > 100 µM | > 100 µM | > 100 µM | > 100 µM | > 100 µM | > 100 µM | > 100 µM | > 100 µM | > 100 µM |  |  |
| NC(=O)NNCc1c(-c2ccccc2)no[n+]1[O-] | > 100 µM | > 100 µM | > 100 µM | > 100 µM | > 100 µM | > 100 µM | > 100 µM | > 100 µM | > 100 µM | > 100 µM | > 100 µM | > 100 µM | > 100 µM | > 100 µM | > 100 µM | > 100 µM | > 100 µM |  |  |
| COc1cc(C2c3[nH]c4ccccc4c3[C@@H](Nc3ccc(C#N)cc3)[C@H]3COC(=O)N23)cc(OC)c1O (stereo partly specified) | 1.78 µM | 0.704 µM | 2.11 µM | 5.56 µM | 1.54 µM | 2.49 µM | 2.7 µM | 0.651 µM | 2.21 µM | 4.4 µM | 0.933 µM | 6.6 µM | 4.12 µM | 0.734 µM | 0.625 µM | > 10 µM | 2.57 µM |  |  |
| Cc1cc(S(=O)(=O)Nc2n[nH]c(Nc3ccc4ccccc4c3)n2)c(S)cc1Cl | 91 µM | > 100 µM | > 100 µM | > 100 µM | > 100 µM | 69.9 µM | > 100 µM | > 100 µM | 51.7 µM | > 100 µM | > 100 µM | > 100 µM | > 100 µM | 76.9 µM | > 100 µM | > 100 µM | > 100 µM |  |  |
| CC1OC(OC2C(OC(=O)[C@]34CCC(C)(C)C[C@H]3C3=CC[C@@H]5[C@@]6(C)CC[C@H](OC7OC(CO)C(O)C(O)C7OC7OC(CO)C(O)C(O)C7O)C(C)(C)[C@@H]6CC[C@@]5(C)[C@]3(C)CC4)OCC(O)C2O)C(O)C(O)C1OC1OCC(O)C(OC2OCC(O)C(O)C2O)C1O (stereo partly specified) | 15.8 µM and 15.3 µM | 3.75 µM and 3.4 µM | 16.7 µM and 14 µM | 27 µM and 26.8 µM | 23.3 µM and 11.2 µM | 30.3 µM and 29.3 µM | 11 µM and 7.69 µM | 13.9 µM and 12.4 µM | 22.3 µM and 34.6 µM | 19.2 µM and 21.6 µM | 26.9 µM and 21.7 µM | 17.8 µM and 19.1 µM | 20.5 µM and 24.7 µM | 13.1 µM and 10.7 µM | 4.82 µM and 4.43 µM | 20.8 µM and 20.5 µM | 4.14 µM and 3.85 µM | 9.23 µM and 3.83 µM | 3.76 µM and 1.87 µM |
| O=C1NC(=S)NC(=O)C1=Cc1ccc(-c2ccccc2)cc1 | > 100 µM | > 100 µM | > 100 µM | > 100 µM | > 100 µM | > 100 µM | > 100 µM | > 100 µM | > 100 µM | > 100 µM | > 100 µM | > 100 µM | > 100 µM | > 100 µM | > 100 µM | > 100 µM | > 100 µM |  |  |
| CC(=O)OCC1OC(n2c(N)c(C#N)c(C)c(C#N)c2=S)C(OC(C)=O)C(OC(C)=O)C1OC(C)=O (stereo unspecified) | > 100 µM | > 100 µM | > 100 µM | > 100 µM | > 100 µM | > 100 µM | > 100 µM | > 100 µM | > 100 µM | > 100 µM | > 100 µM | > 100 µM | > 100 µM | > 100 µM | > 100 µM | > 100 µM | > 100 µM |  |  |
| Cc1nc(C)c(N2CCN(C(=O)O)CC2)c(=O)[nH]1 | > 100 µM | > 100 µM | > 100 µM | > 100 µM | > 100 µM | > 100 µM | > 100 µM | > 100 µM | > 100 µM | > 100 µM | > 100 µM | > 100 µM | > 100 µM | > 100 µM | > 100 µM | > 100 µM | > 100 µM |  |  |
| CCN(CC)c1ccc2cc(C(=O)NCc3ccccc3)c(=N)oc2c1 | > 100 µM | > 100 µM | > 100 µM | > 100 µM | > 100 µM | > 88 µM | > 100 µM | > 100 µM | > 100 µM | > 100 µM | > 100 µM | > 100 µM | > 100 µM | > 100 µM | > 100 µM | > 100 µM | 97.3 µM |  |  |
| NC(N)=NS(=O)(=O)c1ccc(NNC(=O)c2cccc3c(=O)c4ccccc4[nH]c23)cc1 | 94.6 µM | 38.3 µM | 59.5 µM | 50.5 µM | 73.5 µM | > 100 µM | 34.3 µM | 67.2 µM | 57.5 µM | 83.5 µM | 59.4 µM | 89.7 µM | 77.2 µM | > 100 µM | > 100 µM | > 100 µM | 50.4 µM |  |  |
| C=C1C(=O)O[C@H]2C/C(C)=C/CC[C@]3(C)CCC[C@](C)(CC[C@@H]12)O3 | 25.7 µM | 14.5 µM | 20.1 µM | > 50 µM | > 50 µM | 48 µM | 49.4 µM | 27.7 µM | 18.5 µM | 43.7 µM | 15.2 µM | 41.5 µM | 18.4 µM | > 50 µM | 34.2 µM | > 50 µM | 15.7 µM |  |  |
| CCN(CC)c1ccc(C2Nc3ccc4ccccc4c3C3=C2C(=O)CCC3)cc1 (stereo unspecified) | > 100 µM | > 100 µM | > 100 µM | > 100 µM | 69.5 µM | 34.4 µM | > 100 µM | > 100 µM | > 100 µM | 46.4 µM | 38.3 µM | > 100 µM | 59.1 µM | > 100 µM | > 100 µM | > 100 µM | > 100 µM |  |  |
| O=[N+]([O-])c1ccc(C2=NOC(c3ccc(Cl)cc3)N2C23CC4CC(CC(C4)C2)C3)cc1 (stereo unspecified) | > 100 µM | > 100 µM | > 100 µM | > 100 µM | > 100 µM | > 100 µM | > 100 µM | > 100 µM | > 100 µM | > 100 µM | > 100 µM | > 100 µM | 9.89 µM | > 100 µM | > 100 µM | > 100 µM | > 100 µM |  |  |
| O=C(c1ccccc1)c1ccc2c(c1)nc1n2C(c2c(F)cccc2F)SC1 (stereo unspecified) | > 100 µM | > 100 µM | 42.2 µM | > 100 µM | > 100 µM | > 100 µM | > 100 µM | > 100 µM | 96.2 µM | > 100 µM | > 100 µM | > 100 µM | > 100 µM | > 100 µM | > 100 µM | > 100 µM | 54.8 µM |  |  |
| CCCCCCNC(=S)N/N=C(\C)c1ccccn1 | 40.4 µM | 20.9 µM | 15.9 µM | 21.9 µM | 14.9 µM | > 100 µM | 19 µM | 6.28 µM | 21.8 µM | 34.7 µM | 10.2 µM | 24.1 µM | 12.5 µM | 12.5 µM | 14 µM | 21 µM | 10.9 µM |  |  |
| CN1N=C(c2ccccc2)C(C(c2ccccc2[N+](=O)[O-])C2C(=O)N(C)N=C2c2ccccc2)C1=O (stereo unspecified) | > 100 µM | > 100 µM | > 100 µM | > 100 µM | > 100 µM | > 100 µM | > 100 µM | > 96.5 µM | > 100 µM | > 100 µM | > 100 µM | > 100 µM | > 100 µM | > 100 µM | > 100 µM | > 100 µM | > 100 µM |  |  |
